According to patent publication US20100266716A1, “Natural Photodynamic Agents and their use” (priority 2007, published 2010):

Assays:
[1] = system: Salmonella choleraesuis; test: MBEC device biofilm photodynamic killing (Example 1); format: cell-based; design: key to Killing of Salmonella cholerasuis biofilm (eradication or growth): “−” = biofilm eradication at the mentioned conditions (concentration, exposure time and Light source); “+” = biofilm growth; conditions: 16 Hours exposure
Description: (§1) Test microorganisms included Salmonella choleraesuis, Staphylococcus aureus, foodborne pathogens of humans. Test Compounds included Methylene blue, Hemoglobin (blood product), Hemin (blood product), Protoporphyrin (blood product), Annatto Extract (15% Norbixin), beet juice, Canthaxanthin (10%), Beta-carotene (1%), Purple carmine 50%, Carmine lake 60%, Black Carrot extract, Tomato lycopene (5%), sodium copper chlorophyllin, grape skin extract, paprika oleoresin, riboflavin, saffron, titanium dioxide, FD&C blue No1., turmeric oleoresin, FD&C blue No. 2, FD&C Green No. 3, FD&C Red No. 2 (Amaranth), FD&C Red No. 40, FD&C Yellow No. 5, and FD&C Yellow No. 6. Compounds were prepared as 1%, 0.1%, 0.01%, by weight, dissolved in water.
(§2) The light source was a full spectrum fluorescent light or LED light and the contact time was 1 and 16 hours. The study temperature was 37° C.
(§3) Approximately 10^6 organisms in 150 uL Cation Adjusted Mueller Hinton Broth (CAMHB) were placed in each of the wells of a 96 peg MBEC device. The lid of the 96 peg MBEC device was placed on the bottom plate containing organism. The device was placed on a shaker, set to 110 rpm, and incubated at 37° C. for 24 hours to produce biofilms.
(§4) The challenge plates were set up using a sterile 96-well microtitre plate using aseptic techniques in the following manner (one organism per plate, per light exposure time, per light source). Test solutions (200 uL) were placed into each well. The lid was transferred to the challenge plate and exposed to the various light sources for the prescribed exposure times (16 hours). Following the treatment, the pegs were transferred to the recovery media (“recovery plate”) then wrapped in tin foil and incubated at 37° C. for 18 to 24 hours. The recovery plate(s) was wrapped in tin foil, incubated at 37° C. for 24 hours and read visually and by a plate reader, set to an optical density measurement of 630 nm, to determine Minimum Biofilm Eradication Concentration (MBEC) by looking at growth or no growth.

[2] = system: Staphylococcus aureus; test: as above; format: cell-based; design: key to Killing of Staph aureus biofilm (eradication or growth): “−” = biofilm eradication at the mentioned conditions (concentration, exposure time and Light source); “+” = biofilm growth; conditions: 16 Hours exposure
Description: as §1, §2, §3, §4

O=C([O-])C1=NN(c2ccc(S(=O)(=O)[O-])cc2)C(=O)C1N=Nc1ccc(S(=O)(=O)[O-])cc1.[Na+].[Na+].[Na+] (stereo not drawn) [Yellow No. 5, FD&C Yellow No. 5]
+: Killing of Salmonella cholerasuis biofilm (eradication or growth) ([1]; Fluorescent Light, 0.01%) | Killing of Salmonella cholerasuis biofilm (eradication or growth) ([1]; Fluorescent Light, 0.1%) | Killing of Salmonella cholerasuis biofilm (eradication or growth) ([1]; Fluorescent Light, 1%) | Killing of Salmonella cholerasuis biofilm (eradication or growth) ([1]; LED Light, 0.01%) | Killing of Salmonella cholerasuis biofilm (eradication or growth) ([1]; LED Light, 0.1%) | Killing of Salmonella cholerasuis biofilm (eradication or growth) ([1]; LED Light, 1%) | Killing of Staph aureus biofilm (eradication or growth) ([2]; Fluorescent Light, 0.01%) | Killing of Staph aureus biofilm (eradication or growth) ([2]; Fluorescent Light, 0.1%) | Killing of Staph aureus biofilm (eradication or growth) ([2]; Fluorescent Light, 1%) | Killing of Staph aureus biofilm (eradication or growth) ([2]; LED Light, 0.01%) | Killing of Staph aureus biofilm (eradication or growth) ([2]; LED Light, 0.1%) | Killing of Staph aureus biofilm (eradication or growth) ([2]; LED Light, 1%)

O=S(=O)([O-])c1ccc2c(N=Nc3ccc(S(=O)(=O)[O-])c4ccccc34)c(O)c(S(=O)(=O)[O-])cc2c1.[Na+].[Na+].[Na+] [Red No. 2, FD&C Red No. 2 (Amaranth)]
+: Killing of Salmonella cholerasuis biofilm (eradication or growth) ([1]; Fluorescent Light, 0.01%) | Killing of Salmonella cholerasuis biofilm (eradication or growth) ([1]; Fluorescent Light, 0.1%) | Killing of Salmonella cholerasuis biofilm (eradication or growth) ([1]; Fluorescent Light, 1%) | Killing of Salmonella cholerasuis biofilm (eradication or growth) ([1]; LED Light, 0.01%) | Killing of Salmonella cholerasuis biofilm (eradication or growth) ([1]; LED Light, 0.1%) | Killing of Salmonella cholerasuis biofilm (eradication or growth) ([1]; LED Light, 1%) | Killing of Staph aureus biofilm (eradication or growth) ([2]; Fluorescent Light, 0.01%) | Killing of Staph aureus biofilm (eradication or growth) ([2]; Fluorescent Light, 0.1%) | Killing of Staph aureus biofilm (eradication or growth) ([2]; Fluorescent Light, 1%) | Killing of Staph aureus biofilm (eradication or growth) ([2]; LED Light, 0.01%) | Killing of Staph aureus biofilm (eradication or growth) ([2]; LED Light, 0.1%) | Killing of Staph aureus biofilm (eradication or growth) ([2]; LED Light, 1%)

O=C1/C(=C2\Nc3ccc(S(=O)(=O)[O-])cc3C2=O)Nc2ccc(S(=O)(=O)[O-])cc21.[Na+].[Na+] [Blue No. 2, FD&C blue No. 2]
+: Killing of Salmonella cholerasuis biofilm (eradication or growth) ([1]; Fluorescent Light, 0.01%) | Killing of Salmonella cholerasuis biofilm (eradication or growth) ([1]; Fluorescent Light, 0.1%) | Killing of Salmonella cholerasuis biofilm (eradication or growth) ([1]; Fluorescent Light, 1%) | Killing of Salmonella cholerasuis biofilm (eradication or growth) ([1]; LED Light, 0.01%) | Killing of Salmonella cholerasuis biofilm (eradication or growth) ([1]; LED Light, 0.1%) | Killing of Salmonella cholerasuis biofilm (eradication or growth) ([1]; LED Light, 1%) | Killing of Staph aureus biofilm (eradication or growth) ([2]; Fluorescent Light, 0.01%) | Killing of Staph aureus biofilm (eradication or growth) ([2]; Fluorescent Light, 0.1%) | Killing of Staph aureus biofilm (eradication or growth) ([2]; Fluorescent Light, 1%) | Killing of Staph aureus biofilm (eradication or growth) ([2]; LED Light, 0.01%) | Killing of Staph aureus biofilm (eradication or growth) ([2]; LED Light, 0.1%) | Killing of Staph aureus biofilm (eradication or growth) ([2]; LED Light, 1%)

O=S(=O)([O-])c1ccc(N=Nc2c(O)ccc3cc(S(=O)(=O)[O-])ccc23)cc1.[Na+].[Na+] [Yellow No. 6, FD&C Yellow No. 6]
+: Killing of Salmonella cholerasuis biofilm (eradication or growth) ([1]; Fluorescent Light, 0.01%) | Killing of Salmonella cholerasuis biofilm (eradication or growth) ([1]; Fluorescent Light, 0.1%) | Killing of Salmonella cholerasuis biofilm (eradication or growth) ([1]; Fluorescent Light, 1%) | Killing of Salmonella cholerasuis biofilm (eradication or growth) ([1]; LED Light, 0.01%) | Killing of Salmonella cholerasuis biofilm (eradication or growth) ([1]; LED Light, 0.1%) | Killing of Salmonella cholerasuis biofilm (eradication or growth) ([1]; LED Light, 1%) | Killing of Staph aureus biofilm (eradication or growth) ([2]; Fluorescent Light, 0.01%) | Killing of Staph aureus biofilm (eradication or growth) ([2]; Fluorescent Light, 0.1%) | Killing of Staph aureus biofilm (eradication or growth) ([2]; Fluorescent Light, 1%) | Killing of Staph aureus biofilm (eradication or growth) ([2]; LED Light, 0.01%) | Killing of Staph aureus biofilm (eradication or growth) ([2]; LED Light, 0.1%) | Killing of Staph aureus biofilm (eradication or growth) ([2]; LED Light, 1%)

CC1=C(/C=C/C(C)=C/C=C/C(C)=C/C=C/C=C(C)/C=C/C=C(C)/C=C/C2=C(C)C(=O)CCC2(C)C)C(C)(C)CCC1=O [Canthaxanthin]
+: Killing of Salmonella cholerasuis biofilm (eradication or growth) ([1]; Fluorescent Light, 0.01%) | Killing of Salmonella cholerasuis biofilm (eradication or growth) ([1]; Fluorescent Light, 0.1%) | Killing of Salmonella cholerasuis biofilm (eradication or growth) ([1]; Fluorescent Light, 1%) | Killing of Salmonella cholerasuis biofilm (eradication or growth) ([1]; LED Light, 0.01%) | Killing of Salmonella cholerasuis biofilm (eradication or growth) ([1]; LED Light, 0.1%) | Killing of Salmonella cholerasuis biofilm (eradication or growth) ([1]; LED Light, 1%) | Killing of Staph aureus biofilm (eradication or growth) ([2]; Fluorescent Light, 0.01%) | Killing of Staph aureus biofilm (eradication or growth) ([2]; Fluorescent Light, 0.1%) | Killing of Staph aureus biofilm (eradication or growth) ([2]; Fluorescent Light, 1%) | Killing of Staph aureus biofilm (eradication or growth) ([2]; LED Light, 0.01%) | Killing of Staph aureus biofilm (eradication or growth) ([2]; LED Light, 0.1%) | Killing of Staph aureus biofilm (eradication or growth) ([2]; LED Light, 1%)
